For 15 compounds, mutagenic call and call results are on record in PubChem BioAssay AID1259408 (Genetic Toxicology Data Bank (GENE-TOX), 2018).

This data set deals with GENE-TOX genotoxicity assays, various organisms and cells. Nature of the data set: GENE-TOX mutagenicity studies. Particulars: for call: Assay Type: In vivo carcinogenicity studies.
The mark [1] stands for this setting: Species/Cell Type: Nonhuman, Assay Type: Sister-chromatid exchange (SCE) in vitro, Assay Code: SC2+D, Dose Response: With dose response, Evaluation Type: Evaluation B (Post-1980).
Where [2] appears, read: Species/Cell Type: Nonhuman, Assay Type: Sister-chromatid exchange (SCE) in vivo, Assay Code: SC3+D, Dose Response: With dose response, Evaluation Type: Evaluation B (Post-1980).
Setting [3] is: Species/Cell Type: Saccharomyces cerevisiae, Assay Type: Mitotic recombination or gene conversion, Assay Code: YEH-, Evaluation Type: Evaluation A (Pre-1980).
[4] abbreviates: Species/Cell Type: Salmonella typhimurium (one or more of the five standard strains: TA98, TA100, TA1535, TA1537, and TA1538), Assay Type: Histidine reverse gene mutation, Ames assay, Assay Code: SAL+, Evaluation Type: Evaluation A (Pre-1980).
[5] abbreviates: Species/Cell Type: Nonhuman, Assay Type: Sister-chromatid exchange (SCE) in vitro, Assay Code: SC2-, Evaluation Type: Evaluation B (Post-1980).
Setting [6] is: Species/Cell Type: Human lymphocytes, Assay Type: Sister-chromatid exchange (SCE) in vitro, Assay Code: SCL+D, Dose Response: With dose response, Evaluation Type: Evaluation B (Post-1980).
Where [7] appears, read: Species/Cell Type: Human, Assay Type: Sister-chromatid exchange (SCE) in vitro, Assay Code: SC1+D, Dose Response: With dose response, Evaluation Type: Evaluation B (Post-1980).

The source made the active and inactive calls. How the calls were made is not given here.

Turning to `O=c1[nH]c(=O)n([C@H]2C[C@H](O)[C@@H](CO)O2)cc1Br`, the mutagenic call is, setting by setting: (Species/Cell Type: Arabidopsis species, Assay Type: Gene mutation, Assay Code: ARMT, Evaluation Type: Evaluation A (Pre-1980)) “no conclusion”; (Species/Cell Type: Chinese hamster lung (V79) cells, Assay Type: Forward gene mutation at the HPRT or ouabain locus, Assay Code: V79+, Evaluation Type: Evaluation A (Pre-1980)) “active; positive”; (Species/Cell Type: Chinese hamster ovary (CHO) cells, Assay Type: Forward gene mutation at the HPRT locus, Assay Code: CHO+, Evaluation Type: Evaluation B (Post-1980)) “active; positive”; (Species/Cell Type: Drosophila melanogaster, Assay Type: Sex-linked recessive lethal gene mutation, Assay Code: SRL+, Evaluation Type: Evaluation A (Pre-1980)) “active; positive”; (Species/Cell Type: Drosophila melanogaster, Sex: Male, Assay Type: Heritable translocation test, chromosome aberrations, Assay Code: DHTT, Evaluation Type: Evaluation A (Pre-1980)) “no conclusion”; (Species/Cell Type: Escherichia coli polA (W3119 vs P3478), Assay Type: Rec-assay, DNA effects (bacterial DNA repair), Assay Code: RE1T, Evaluation Type: Evaluation A (Pre-1980)) “no conclusion”. Also, the mutagenic call by setting is: (Species/Cell Type: Human diploid fibroblasts, Assay Type: Unscheduled DNA synthesis (UDS) in vitro, DNA effects, Assay Code: UDH-, Evaluation Type: Evaluation A (Pre-1980)) “inactive; negative”; (Species/Cell Type: Human embryo lung fibroblasts (WI-38 cells), Assay Type: Sister-chromatid exchange (SCE) in vitro, Assay Code: SCW+D, Dose Response: With dose response, Evaluation Type: Evaluation A (Pre-1980)) “active; positive”; (Species/Cell Type: Human embryo lung fibroblasts (WI-38 cells), Assay Type: Sister-chromatid exchange (SCE) in vitro, Assay Code: SCW+D, Dose Response: With dose response, Evaluation Type: Evaluation B (Post-1980)) “active; positive”; (Species/Cell Type: Human lymphocytes, Assay Type: Micronucleus test in vitro, chromosome aberrations, Assay Code: MN7+, Evaluation Type: Evaluation A (Pre-1980)) “active; positive”; (Species/Cell Type: Human lymphocytes, Assay Type: Sister-chromatid exchange (SCE) in vitro, Assay Code: SCL+D, Dose Response: With dose response, Evaluation Type: Evaluation A (Pre-1980)) “active; positive”; (Species/Cell Type: Human lymphocytes, Assay Type: Sister-chromatid exchange (SCE) in vitro, Assay Code: SCLT, Evaluation Type: Evaluation B (Post-1980)) “no conclusion”. The mutagenic call is “active; positive” (Species/Cell Type: Human, Assay Type: Sister-chromatid exchange (SCE) in vitro, Assay Code: SC1+D, Dose Response: With dose response, Evaluation Type: Evaluation A (Pre-1980)); “no conclusion” (Species/Cell Type: Human, Assay Type: Sister-chromatid exchange (SCE) in vitro, Assay Code: SC1T, Evaluation Type: Evaluation B (Post-1980)); “active; positive” (Species/Cell Type: Mammalian polychromatic erythrocytes, Assay Type: Micronucleus test, chromosome aberrations, Assay Code: MNT+, Evaluation Type: Evaluation A (Pre-1980)); “inactive; negative” (Species/Cell Type: Mouse (C3H/10T1/2) cells, Assay Type: Cell transformation, Assay Code: CTH-, Evaluation Type: Evaluation A (Pre-1980)); “active; positive” (Species/Cell Type: Mouse, Sex: Male, Assay Type: Sperm morphology, Assay Code: SPI+, Evaluation Type: Evaluation A (Pre-1980)); “active; positive” (Species/Cell Type: Nonhuman, Assay Type: Sister-chromatid exchange (SCE) in vitro, Assay Code: SC2+D, Dose Response: With dose response, Evaluation Type: Evaluation A (Pre-1980)). Moreover, the mutagenic call is, setting by setting: under setting [1], “active; positive”; (Species/Cell Type: Nonhuman, Assay Type: Sister-chromatid exchange (SCE) in vivo, Assay Code: SC3+D, Dose Response: With dose response, Evaluation Type: Evaluation A (Pre-1980)) “active; positive”; under setting [2], “active; positive”; under setting [3], “inactive; negative”; (Species/Cell Type: Syrian hamster embryo (SA7/SHE) cells, Assay Type: Cell transformation, viral enhanced, Assay Code: CT7+, Evaluation Type: Evaluation A (Pre-1980)) “active; positive”; (Species/Cell Type: Syrian hamster embryo (SHE) cells, Assay Type: Cell transformation, clonal assay, Assay Code: CTCT, Evaluation Type: Evaluation A (Pre-1980)) “no conclusion”. The call (Species/Cell Type: Nonhuman, Assay Code: CCGT, Evaluation Type: Evaluation A (Pre-1980)) is recorded as “no conclusion”.

As for `O=[N+]([O-])c1ccc2c3c(cccc13)CC2`, the call (Species/Cell Type: Nonhuman, Assay Code: CCG+, Evaluation Type: Evaluation A (Pre-1980)) was “active; positive”. Moreover, the mutagenic call under setting [4] is “active; positive”.

As to `O=C(O)C(=O)c1ccc(Cl)cc1`, under setting [5], the mutagenic call is “inactive; negative”.

For the compound `O=c1[nH]c(=O)n([C@H]2C[C@H](O)[C@@H](COP(=O)(O)O)O2)cc1[N+](=O)[O-]`, the mutagenic call under setting [6] is “active; positive” and the mutagenic call under setting [7] was “active; positive”.

For `[I][Hg][I]`, the mutagenic call under setting [5] is “inactive; negative”.

Regarding `O=C(O)c1cc(N=Nc2ccc([N+](=O)[O-])cc2)ccc1O`, the mutagenic call (Species/Cell Type: Salmonella typhimurium (one or more of the five standard strains: TA98, TA100, TA1535, TA1537, and TA1538), Assay Type: Histidine reverse gene mutation, Ames assay, Assay Code: SALT, Evaluation Type: Evaluation A (Pre-1980)) is given as “no conclusion”.

In the case of `ClC(Cl)Br`, the mutagenic call under setting [6] is “active; positive”; the mutagenic call under setting [7] was “active; positive”; the mutagenic call under setting [2] is “active; positive”; the mutagenic call under setting [3] is “inactive; negative”; the mutagenic call under setting [4] is “active; positive”.

Take `COc1cc(C(=O)CCN2CCCC2)ccc1O`: where the note is “Species/Cell Type: Salmonella typhimurium, Assay Type: Forward and reverse gene mutation, host-mediated assay, Assay Code: HMAT, Evaluation Type: Evaluation A (Pre-1980)”, the mutagenic call is recorded as “no conclusion”.

On to `[Cl-].[Cl-].[NH2-].[NH2-].[NH2-].[NH2-].[Pt+2]`, for which the mutagenic call (Species/Cell Type: Chinese hamster ovary (CHO) cells, Assay Type: Forward gene mutation at the HPRT locus, Assay Code: CHOT, Evaluation Type: Evaluation B (Post-1980)) was “no conclusion”.

As to `[Cl][Sn][Cl]`, the mutagenic call was “inactive; negative” (Species/Cell Type: Bacillus subtilis (H17 vs M45), Assay Type: Rec-assay, spot test, DNA effects (bacterial DNA repair), Assay Code: REW-, Evaluation Type: Evaluation A (Pre-1980)); “inactive; negative” (Species/Cell Type: Escherichia coli WP2 UVRA, Assay Type: Tryptophan reverse gene mutation, Assay Code: WPU-*, Activation: With metabolic activation, Evaluation Type: Evaluation A (Pre-1980)); “inactive; negative” under setting [5]. The call (Species/Cell Type: Nonhuman, Assay Code: CCG-L, Evaluation Type: Evaluation A (Pre-1980)) was “inactive; negative”.

Consider `O=C1NC(=O)C(c2ccccc2)(c2ccccc2)N1`, for which the mutagenic call by setting is: (Species/Cell Type: Human lymphocytes, Assay Type: Sister-chromatid exchange (SCE) in vivo, Assay Code: SCY+, Evaluation Type: Evaluation B (Post-1980)) “active; positive”; (Species/Cell Type: Human, Sex: Male, Assay Type: Sperm morphology, Assay Code: SPHT, Evaluation Type: Evaluation A (Pre-1980)) “no conclusion”; (Species/Cell Type: Mammalian polychromatic erythrocytes, Assay Type: Micronucleus test, chromosome aberrations, Assay Code: MNT+, Evaluation Type: Evaluation B (Post-1980)) “active; positive”; (Species/Cell Type: Mammalian polychromatic erythrocytes, Assay Type: Micronucleus test, chromosome aberrations, Assay Code: MNTT, Evaluation Type: Evaluation B (Post-1980)) “no conclusion”; (Species/Cell Type: Nonhuman, Assay Type: Sister-chromatid exchange (SCE) in vivo, Assay Code: SC3+, Evaluation Type: Evaluation B (Post-1980)) “active; positive”.

`CC1=CC2=C(C=O)C(=O)[C@](C)(O)[C@@H](O)C2=CO1`: under setting [4], the mutagenic call was “active; positive”.

For `C(CC1CO1)C1CO1` (stereo not given), the mutagenic call (Species/Cell Type: Neurospora crassa, Assay Type: Forward gene mutation, Assay Code: NEF+, Evaluation Type: Evaluation A (Pre-1980)) was “active; positive” and the mutagenic call (Species/Cell Type: Schizosaccharomyces pombe, Assay Type: Reverse gene mutation, Assay Code: YEZ+, Evaluation Type: Evaluation A (Pre-1980)) was “active; positive”. Also, the call (Species/Cell Type: Nonhuman, Assay Code: CCG+L, Evaluation Type: Evaluation A (Pre-1980)) was “active; positive”.

As to `NC(=O)c1cccnc1`, the mutagenic call by setting is: (Species/Cell Type: Human, Assay Type: Sister-chromatid exchange (SCE) in vitro, Assay Code: SC1+, Evaluation Type: Evaluation B (Post-1980)) “active; positive”; (Species/Cell Type: Nonhuman, Assay Type: Sister-chromatid exchange (SCE) in vitro, Assay Code: SC2+, Evaluation Type: Evaluation B (Post-1980)) “active; positive”.

With `CN(N=O)C(=O)Oc1cccc2c1OC(C)(C)C2`, under setting [1], the mutagenic call was “active; positive”.
